{"source": "patent US10208288B2", "about": "“Differentiation of human embryonic stem cells into pancreatic endocrine cells” (Janssen Biotech, Inc., priority 2012, dated 2019)", "tested_on": "cells of the human embryonic stem cell line H1 differentiated to stage 6", "test": "Phase contrast imaging of endocrine cluster formation in stage 6 cultures", "format": "cell-based", "protocol": "Cells of the human embryonic stem cell line H1 (hESC H1, passage 40) were seeded as single cells at 1×10^5 cells/cm^2 on MATRIGEL™ (1:30 dilution; BD Biosciences, NJ) coated dishes in mTeSR®1 media (StemCell Technologies, Vancouver, Canada) supplemented with 10 μM of Y27632. Forty-eight hours post seeding, cultures were washed in incomplete PBS (phosphate buffered saline without Mg or Ca). Cultures were differentiated into pancreatic endoderm/endocrine lineages as follows: • a) Stage 1 (Definitive Endoderm (DE)—3 days): Cells were cultured for one day in stage 1 media (see Example 1, above). Cells were then cultured for an additional day in MCDB-131 medium supplemented with 0.1% fatty acid-free BSA, 0.0012 g/ml sodium bicarbonate, 1× GlutaMax™, 4.5 mM D-Glucose, 100 ng/ml GDF8, and 0.1 μM MCX compound. Cells were then cultured for an additional day in MCDB-131 medium supplemented with 0.1% fatty acid-free BSA, 0.0012 g/ml sodium bicarbonate, 1× GlutaMax™, 4.5 mM D-Glucose, and 100 ng/ml GDF8, then • b) Stage 2 (Primitive gut tube—2 days): Cells were treated for two days with MCDB-131 medium supplemented with 0.1% fatty acid-free BSA; 0.0012 g/ml sodium bicarbonate; 1× GlutaMax™; 4.5 mM D-Glucose; 0.25 mM ascorbic acid (Sigma, Mo.) and 25 ng/ml FGF7 (R & D Systems, MN), then • c) Stage 3 (Foregut—2 days): Cells were treated with MCDB-131 medium supplemented with a 1:200 dilution of ITS-X (Invitrogen, Ca); 4.5 mM Glucose; 1× GlutaMax™; 0.0017 g/ml sodium bicarbonate; 2% fatty acid-free BSA; 0.25 μM SANT-1 (Sigma, Mo.); 10 ng/ml of Activin-A (R& D Systems, MN); 1 μM RA (Sigma, Mo.); 25 ng/ml FGF7; 0.25 mM ascorbic acid; 200 nM TPB (PKC activator; Catalog No. 565740; EMD Chemicals, Gibstown, N.J.); 10 μM forskolin (FSK, Sigma, Mo.), and 100 nM LDN (BMP receptor inhibitor; Catalog No. 04-0019; Stemgent, Calif.) for day 1. […]"}
{"smiles": "CCCCCCCCCCCCC/C=C/[C@@H](O)[C@@H](N)COP(=O)(O)O", "note": "[S1P, sphingosine-1-phosphate]", "values": [{"measurement": "time at which endocrine clusters emerged after start of stage 6", "setting": "10 μM added for three days at stage 6, FIG. 6A, 6B", "value": 3, "unit": "days"}, {"measurement": "formation of clusters earlier than in control cultures", "setting": "10 μM at stage 6, vs control cultures", "value": "about 7 days"}, {"measurement": "clustering of endocrine cells", "setting": "S6 cultures, day 7, phase contrast, FIG. 4B", "value": "clear evidence of clustering of endocrine cells"}, {"measurement": "appearance of endocrine clusters", "setting": "S6 cultures, day 10, phase contrast, FIG. 4C, 4D", "value": "clusters were separated from each other by a thin layer of pancreatic endoderm epithelium"}]}
